How the values were obtained:
[1] = test system: NFkB target genes TLR2 and ICAM1; assay: qRT-PCR of NFkB target genes in latent HIV-infected Jurkat/SupT1 cell lines; type: cell-based
Protocol: (§1) Expression data are presented as fold induction normalized to Cyclophillin A control.
(§2) Latent HIV-infected S-Lat 30 (A) and J-LatP32 (B) were treated with Wnt3A or control conditioned media. Relative mRNA expression levels of endogenous Wnt target genes AXIN2, ZCCHC12, TCF1, MMP9, the HIV P24 Gag and the LTR-reporter GFP, control (GAPDH) and NFkB target genes were quantitated by qRT-PCR. Expression data are presented as fold induction normalized to Cyclophillin A control.
(§3) A) S-Lat 46, J-Lat P32, J-Lat A2, J-Lat 11.1, S-Lat 24, S-Lat 9 and S-Lat 30 latently infected Jurkat and SupT1 cell lines were treated with Lithium Chloride (10 mM) for 2 hours, and GFP expression was monitored by FACS analysis to determine activation of the latent LTR. B) J-Lat P32 and (C) S-Lat 30 Jurkats and SupT1 cell lines harbouring latently infected HIV were either untreated or treated with 2, 5 or 10 mM LiCl as indicated. Expression of HIV-LTR driven P24 and GFP, and endogenous Wnt target genes AXIN2, MMP9, TCF1, as well as control GAPDH and NFkB target genes TLR2 and ICAM1 was monitored by qRT-PCR 72 hours after treatment. Expression data are presented as fold induction normalized to Cyclophillin A control.
In addition, latent HIV-infected S-Lat 30 (A) and J-LatP32 (B) were treated with Wnt3A or control conditioned media. Relative mRNA expression levels of endogenous Wnt target genes AXIN2, ZCCHC12, TCF1, MMP9, the HIV P24 Gag and the LTR-reporter GFP, control (GAPDH) and NFkB target genes were quantitated by qRT-PCR. Expression data are presented as fold induction normalized to Cyclophillin A control.

[2] = test system: latent HIV LTR; assay: Activation of latent HIV LTR in J-Lat/S-Lat latently infected cell lines (GFP reporter, FACS); type: cell-based, HIV-1; conditions: for de-repression / activation of latent HIV LTR: single agents, J-Lat/S-Lat or 1G5 cells, FIG. 5
Protocol: as §3, with “[…],” for “S-Lat 30 latently infected Jurkat and SupT1 cell lines were treated with Lithium Chloride (10 mM) for 2 hours,”
as §1

[3] = test system: Wnt target genes AXIN2, TCF7(TCF1), MMP9, ZCCHC12, MMP2; assay: qRT-PCR of endogenous Wnt target genes in latent HIV-infected Jurkat/SupT1 cell lines; type: cell-based
Protocol: as §1, §2
A) S-Lat 46, J-Lat P32, J-Lat A2, J-Lat 11.1, S-Lat 24, S-Lat 9 and S-Lat 30 latently infected Jurkat and SupT1 cell lines were treated with Lithium Chloride (10 mM) for 2 hours, and GFP expression was monitored by FACS analysis to determine activation of the latent LTR. […] Expression of HIV-LTR driven P24 and GFP, and endogenous Wnt target genes AXIN2, MMP9, TCF1, as well as control GAPDH and NFkB target genes TLR2 and ICAM1 was monitored by qRT-PCR 72 hours after treatment. […]
In addition, latent HIV-infected S-Lat 30 (A) and J-LatP32 (B) were treated with Wnt3A or control conditioned media. Relative mRNA expression levels of endogenous Wnt target genes AXIN2, ZCCHC12, TCF1, MMP9, the HIV P24 Gag and the LTR-reporter GFP, control (GAPDH) and NFkB target genes were quantitated by qRT-PCR. […]

[4] = test system: latent HIV (P24 Gag, LTR-reporter GFP); assay: qRT-PCR of HIV P24 Gag and LTR-reporter GFP mRNA in latent HIV-infected cell lines; type: cell-based
Description: (§4) A) Exogenous expression of S33Y β-catenin in S-Lat30 latent HIV infected cell line results in activation of TCF/LEF-driven TOPFLASH luciferase activity. […] S33Y β-catenin expression also results in a concomitant activation of latent HIV in S-Lat30 HIV infected cell line as quantitated by increased mRNA expression of HIV P24 Gag and the LTR-reporter GFP. Expression data are presented as fold induction normalized to Cyclophillin A control.
as §2
In addition, latent HIV-infected S-Lat 30 (A) and J-LatP32 (B) were treated with Wnt3A or control conditioned media. Relative mRNA expression levels of endogenous Wnt target genes AXIN2, ZCCHC12, TCF1, MMP9, the HIV P24 Gag and the LTR-reporter GFP, control (GAPDH) and NFkB target genes were quantitated by qRT-PCR. Expression data are presented as fold induction normalized to Cyclophillin A control. […]

[5] = test system: HIV LTR nucleosomes (DHS1, nuc-1); assay: PCR-based MNase mapping of latent HIV LTR nucleosome structure; type: cell-based
Description: The high resolution dynamic nucleosomal structure of latently integrated HIV LTR is mapped in presence or absence of Wnt stimulation.
It is an aspect of this invention that this synergistic effect on LTR nucleosome structure extends to other LTR de-repressors.

[6] = test system: latently infected PBMCs; assay: Primary PBMC latency model, HIV expression after treatment; type: cell-based; conditions: PBMCs infected with LTR-Tat-IRES-GFP virus, sorted five days after infection
Description: PBMCs were infected with VSV-G pseudotyped LTR-Tat-IRES-GFP virus particles and examined establishment of a latent phenotype, as in the cell line latency models (J-Lat/S-Lat). Briefly, PBMCs were Ficoll-purified from buffycoats of healthy donors, activated with phytohemagglutinin (PHA-L) and Interleukin-2 (IL-2), followed by virus infection. Five days after infection, GFP negative cells were sorted by FACS, placed in culture. […] Thus, even in the context of a fully activated T cell, integration of HIV at select sites will lead to the suppression of HIV transcription.

[7] = test system: TCF/LEF-driven TOPFLASH; assay: TCF/LEF-driven TOPFLASH luciferase reporter in S-Lat30; type: cell-based; conditions: exogenous expression (nucleofection) in S-Lat30; FIG. 6A
Description: as §4
For example, activation of the Wnt signaling pathway may be measured/quantitated by an increase In TCF-driven transcription in the cell after introduction of TOPFLASH (plasmid with tandem TCF/LEF consensus sites driving expression of the luciferase gene) into the cell via transfection/nucleofection. Increase in TOPFLASH (TCF-driven) and not FOPFLASH (TCF-mutant reporter) indicates activation of the Wnt signaling pathway.
S33Y β-catenin constitutively active mutant: Transfection (by nucleofection) of latent HIV infected cell lines with an expression vector for a constitutively active form of β-catenin, the molecular effector of the Wnt signaling pathway results in activation of latent HIV.

[8] = Wnt3A conditioned media, S-Lat 30 and J-LatP32, FIG. 7
[9] = exogenous expression in S-Lat30, FIG. 6B

CC(=O)O[C@@]12C[C@@H](C)[C@@]3(O)[C@@H](C=C(CO)C[C@]4(O)C(=O)C(C)=C[C@@H]34)[C@@H]1C2(C)C [Prostratin]
mRNA expression of NFkB target genes TLR2, ICAM1 (RT-PCR) ([1]; Lithium 1 mM-10 mM, Prostratin as positive control, FIG. 9): activation of the NFkB target genes TLR2 and ICAM

Wnt3A
de-repression / activation of latent HIV LTR [2]: de-repression of latent HIV LTR | activation of endogenous Wnt target genes (qRT-PCR) [3, 8]: activates latent HIV and endogenous Wnt target genes | activation of NFkB target genes (qRT-PCR) [1, 8]: not NFkB target genes | activation of latent HIV (P24 Gag and LTR-reporter GFP mRNA, qRT-PCR) [4, 8]: activates latent HIV

CCCCCCCCCCCCCC(=O)O[C@@H]1[C@@H](C)[C@@]2(O)[C@@H](C=C(CO)C[C@]3(O)C(=O)C(C)=C[C@@H]23)[C@@H]2C(C)(C)[C@]12OC(C)=O [PMA]
loosely positioned nucleosomes over DHS1 (MNase mapping) ([5]; PMA stimulation): disappear | HIV expression in GFP negative sorted infected PBMCs [6]: activated HIV expression

TNFa
HIV expression in GFP negative sorted infected PBMCs [6]: activated HIV expression

Cc1c[nH]c(-c2cnc(NCCNc3ccc(C#N)cn3)nc2-c2ccc(Cl)cc2Cl)n1 [CHIR-99021, 6-(2-(4-(2,4-Dichlorophenyl)-5-(4-methyl-1H-imidazol-2-yl)-pyrimidin-2-ylamino)ethyl-amino)-nicotinonitrile]
activation of the latent LTR (GFP expression by FACS) ([2]; 1 μM, 24 hours, J-Lat P44, S-Lat 24, J-Lat P21, J-Lat 11.1, S-Lat 9, S-Lat 30, FIG. 8): activation of the HIV LTR

CCCC(CCC)C(=O)O [VPA, valproic acid]
de-repression / activation of latent HIV LTR [2]: marginal activation | remodelling of nuc-1 (MNase mapping) ([5]; co-treatment of VPA with Wnt stimulation): dramatic remodelling of the repressive nuc-1

B1: R-spondin: LGR ligand, 27 kDa protein, used as R-spondin1-conditioned medium from HEK293T (protein, UniProt Q2MKA7 21-263, looked up)
R-spondin-1: SRGIKGKRQRRISAEGSQACAKGCELCSEVNGCLKCSPKLFILLERNDIRQVGVCLPSCPPGYFDARNPDMNKCIKCKIEHCEACFSHNFCTKCKEGLYLHKGRCYPACPEGSSAANGTMECSSPAQCEMSEWSPWGPCSKKQQLCGFRRGSEERTRRVLHAPVGDHAACSDTKETRRCTVRRVPCPEGQKRRKGGQGRRENANRNLARKESKEAGAGSRRRKGQQQQQQQGTVGPLTSAGPA
modifications: conditioned medium
notes: LGR ligand, 27 kDa protein, used as R-spondin1-conditioned medium from HEK293T
de-repression / activation of latent HIV LTR [2]: de-repression of latent HIV LTR

B2: S33Y β-catenin: constitutively active β-catenin mutant, expressed from a nucleofected expression vector (protein, UniProt P35222 2-781, looked up, variant S33Y)
Catenin beta-1: ATQADLMELDMAMEPDRKAAVSHWQQQSYLDYGIHSGATTTAPSLSGKGNPEEEDVDTSQVLYEWEQGFSQSFTQEQVADIDGQYAMTRAQRVRAAMFPETLDEGMQIPSTQFDAAHPTNVQRLAEPSQMLKHAVVNLINYQDDAELATRAIPELTKLLNDEDQVVVNKAAVMVHQLSKKEASRHAIMRSPQMVSAIVRTMQNTNDVETARCTAGTLHNLSHHREGLLAIFKSGGIPALVKMLGSPVDSVLFYAITTLHNLLLHQEGAKMAVRLAGGLQKMVALLNKTNVKFLAITTDCLQILAYGNQESKLIILASGGPQALVNIMRTYTYEKLLWTTSRVLKVLSVCSSNKPAIVEAGGMQALGLHLTDPSQRLVQNCLWTLRNLSDAATKQEGMEGLLGTLVQLLGSDDINVVTCAAGILSNLTCNNYKNKMMVCQVGGIEALVRTVLRAGDREDITEPAICALRHLTSRHQEAEMAQNAVRLHYGLPVVVKLLHPPSHWPLIKATVGLIRNLALCPANHAPLREQGAIPRLVQLLVRAHQDTQRRTSMGGTQQQFVEGVRMEEIVEGCTGALHILARDVHNRIVIRGLNTIPLFVQLLYSPIENIQRVAAGVLCELAQDKEAAEAIEAEGATAPLTELLHSRNEGVATYAAAVLFRMSEDKPQDYKKRLSVELTSSLFRTEPMAWNETADLGLDIGAQGEPLGYRQDDPSYRSFHSGGYGQDALGMDPMMEHEMGGHHPGADYPVDGLPDLGHAQDLMDGLPPGDSNQLAWFDTDL
mRNA expression of endogenous Wnt target genes AXIN2, MMP2, TCF1, ZCCHC12, MMP9 [3, 9]: increased mRNA expression of the endogenous Wnt target genes | mRNA expression of control gene GAPDH and NFkb target genes TLR2 and ICAM1 [1, 9]: not control gene GAPDH, or the NFkb target genes TLR2 and ICAM1 | mRNA expression of HIV P24 Gag and LTR-reporter GFP [4, 9]: increased mRNA expression of HIV P24 Gag as well as the LTR-reporter GFP | TCF-driven TOPFLASH luciferase activity [7]: activation of TCF-driven TOPFLASH luciferase activity
